What was measured:
SNU-423 = experiment: cells; type: functional, cell-based, Homo sapiens; conditions: Homo sapiens, SNU-423
Description: SANGER: Inhibition of human SNU-423 cell growth in a cell viability assay.

CHP-134 = experiment: SANGER: Inhibition of human CHP-134 cell growth in a cell viability assay.; type: functional, cell-based
H9 = experiment: cells; type: functional, cell-based; conditions: Homo sapiens
Description: SANGER: Inhibition of human H9 cell growth in a cell viability assay.

NCI-H630 = experiment: cells; type: functional, cell-based, Homo sapiens; conditions: Homo sapiens, NCI-H630
Description: SANGER: Inhibition of human NCI-H630 cell growth in a cell viability assay.

BALL-1 = experiment: cells; type: functional, cell-based; conditions: Homo sapiens
Description: SANGER: Inhibition of human BALL-1 cell growth in a cell viability assay.

D-566MG = experiment: cells; type: functional, cell-based; conditions: Homo sapiens
HuO9 = experiment: cells; type: functional, cell-based, Homo sapiens; conditions: Homo sapiens, HuO9
Description: SANGER: Inhibition of human HuO9 cell growth in a cell viability assay.

SW900 = experiment: cells; type: functional, cell-based; conditions: Homo sapiens
Description: SANGER: Inhibition of human SW900 cell growth in a cell viability assay.

MOLT-13 = experiment: cells; type: functional, cell-based; conditions: Homo sapiens
Description: SANGER: Inhibition of human MOLT-13 cell growth in a cell viability assay.

NCI-H1048 = experiment: cells; type: functional, cell-based; conditions: Homo sapiens
Description: SANGER: Inhibition of human NCI-H1048 cell growth in a cell viability assay.

LU-135 = experiment: cells; type: functional, cell-based; conditions: Homo sapiens
Description: SANGER: Inhibition of human LU-135 cell growth in a cell viability assay.

HCT-15 = experiment: cells; type: functional, cell-based, Homo sapiens; conditions: Homo sapiens, HCT-15
Description: SANGER: Inhibition of human HCT-15 cell growth in a cell viability assay.

DV-90 = experiment: cells; type: functional, cell-based; conditions: Homo sapiens
Description: SANGER: Inhibition of human DV-90 cell growth in a cell viability assay.

NCI-H2227 = experiment: cells; type: functional, cell-based; conditions: Homo sapiens
Description: SANGER: Inhibition of human NCI-H2227 cell growth in a cell viability assay.

MRK-nu-1 = experiment: cells; type: functional, cell-based; conditions: Homo sapiens
Description: SANGER: Inhibition of human MRK-nu-1 cell growth in a cell viability assay.

EW-7 = experiment: SANGER: Inhibition of human EW-7 cell growth in a cell viability assay.; type: functional, cell-based; conditions: Homo sapiens, EW-7
HCC1143 = experiment: cells; type: functional, cell-based; conditions: Homo sapiens
Description: SANGER: Inhibition of human HCC1143 cell growth in a cell viability assay.

NCI-H838 = experiment: cells; type: functional, cell-based; conditions: Homo sapiens
Description: SANGER: Inhibition of human NCI-H838 cell growth in a cell viability assay.

COR-L279 = experiment: SANGER: Inhibition of human COR-L279 cell growth in a cell viability assay.; type: functional, cell-based
NCI-H719 = experiment: cells; type: functional, cell-based; conditions: Homo sapiens
Description: SANGER: Inhibition of human NCI-H719 cell growth in a cell viability assay.

BC1 cell line = experiment: SANGER: Inhibition of human BC-1 cell growth in a cell viability assay.; type: functional, cell-based
COLO 205 = experiment: cells; type: functional, cell-based; conditions: Homo sapiens
Description: SANGER: Inhibition of human COLO-205 cell growth in a cell viability assay.

MES-SA = experiment: cells; type: functional, cell-based, Homo sapiens; conditions: Homo sapiens, MES-SA
Description: SANGER: Inhibition of human MES-SA cell growth in a cell viability assay.

Daudi = experiment: cells; type: functional, cell-based; conditions: Homo sapiens
Description: SANGER: Inhibition of human Daudi cell growth in a cell viability assay.

IPC-298 = experiment: SANGER: Inhibition of human IPC-298 cell growth in a cell viability assay.; type: functional, cell-based
Calu-1 = experiment: SANGER: Inhibition of human Calu-1 cell growth in a cell viability assay.; type: functional, cell-based
MC-CAR = experiment: cells; type: functional, cell-based; conditions: Homo sapiens
Description: SANGER: Inhibition of human MC-CAR cell growth in a cell viability assay.

TALL-1 = experiment: cells; type: functional, cell-based; conditions: Homo sapiens
Description: SANGER: Inhibition of human TALL-1 cell growth in a cell viability assay.

LC-1F = experiment: cells; type: functional, cell-based; conditions: Homo sapiens
Description: SANGER: Inhibition of human LC-1F cell growth in a cell viability assay.

SNU-C1 = experiment: cells; type: functional, cell-based; conditions: Homo sapiens
Description: SANGER: Inhibition of human SNU-C1 cell growth in a cell viability assay.

BL-70 = experiment: SANGER: Inhibition of human BL-70 cell growth in a cell viability assay.; type: functional, cell-based
C-4-II = experiment: SANGER: Inhibition of human C-4-II cell growth in a cell viability assay.; type: functional, cell-based
L-540 = experiment: cells; type: functional, cell-based; conditions: Homo sapiens
Description: SANGER: Inhibition of human L-540 cell growth in a cell viability assay.

JIYOYE = experiment: cells; type: functional, cell-based; conditions: Homo sapiens
Description: SANGER: Inhibition of human JiyoyeP-2003 cell growth in a cell viability assay.

NCI-H2196 = experiment: cells; type: functional, cell-based; conditions: Homo sapiens
Description: SANGER: Inhibition of human NCI-H2196 cell growth in a cell viability assay.

CPC-N = experiment: cells; type: functional, cell-based; conditions: Homo sapiens
Description: SANGER: Inhibition of human CPC-N cell growth in a cell viability assay.

ECC12 = experiment: cells; type: functional, cell-based; conditions: Homo sapiens
Description: SANGER: Inhibition of human ECC12 cell growth in a cell viability assay.

EFE-184 = experiment: cells; type: functional, cell-based; conditions: Homo sapiens
Description: SANGER: Inhibition of human EFE-184 cell growth in a cell viability assay.

NCI-H524 = experiment: cells; type: functional, cell-based; conditions: Homo sapiens
Description: SANGER: Inhibition of human NCI-H524 cell growth in a cell viability assay.

U-698-M = experiment: cells; type: functional, cell-based; conditions: Homo sapiens
Description: SANGER: Inhibition of human U-698-M cell growth in a cell viability assay.

P31-FUJ = experiment: cells; type: functional, cell-based; conditions: Homo sapiens
Description: SANGER: Inhibition of human P31-FUJ cell growth in a cell viability assay.

NCI-H1734 = experiment: cells; type: functional, cell-based; conditions: Homo sapiens
Description: SANGER: Inhibition of human NCI-H1734 cell growth in a cell viability assay.

NCI-H322M = experiment: cells; type: functional, cell-based; conditions: Homo sapiens
Description: SANGER: Inhibition of human NCI-H322M cell growth in a cell viability assay.

CCF-STTG1 = experiment: cells; type: functional, cell-based; conditions: Homo sapiens
Description: SANGER: Inhibition of human CCF-STTG1 cell growth in a cell viability assay.

SNG-M = experiment: cells; type: functional, cell-based; conditions: Homo sapiens
Description: SANGER: Inhibition of human SNG-M cell growth in a cell viability assay.

PLC-PRF-5 = experiment: cells; type: functional, cell-based; conditions: Homo sapiens
Description: SANGER: Inhibition of human PLC-PRF-5 cell growth in a cell viability assay.

SR = experiment: cells; type: functional, cell-based; conditions: Homo sapiens
Description: SANGER: Inhibition of human SR cell growth in a cell viability assay.

HSC-4 = experiment: cells; type: functional, cell-based, Homo sapiens; conditions: Homo sapiens, HSC-4
Description: SANGER: Inhibition of human HSC-4 cell growth in a cell viability assay.

SK-CO-1 = experiment: cells; type: functional, cell-based; conditions: Homo sapiens
Description: SANGER: Inhibition of human SK-CO-1 cell growth in a cell viability assay.

OPM-2 = experiment: cells; type: functional, cell-based; conditions: Homo sapiens
Description: SANGER: Inhibition of human OPM-2 cell growth in a cell viability assay.

Caov-3 cell line = experiment: cells; type: functional, cell-based; conditions: Homo sapiens
Description: SANGER: Inhibition of human Caov-3 cell growth in a cell viability assay.

MDA-MB-468 = experiment: cells; type: functional, cell-based; conditions: Homo sapiens
Description: SANGER: Inhibition of human MDA-MB-468 cell growth in a cell viability assay.

TT = experiment: cells; type: functional, cell-based; conditions: Homo sapiens
Description: SANGER: Inhibition of human TT cell growth in a cell viability assay.

NCCIT = experiment: SANGER: Inhibition of human NCCIT cell growth in a cell viability assay.; type: functional, cell-based
SNU-475 = experiment: cells; type: functional, cell-based; conditions: Homo sapiens
Description: SANGER: Inhibition of human SNU-475 cell growth in a cell viability assay.

MFE-296 = experiment: SANGER: Inhibition of human MFE-296 cell growth in a cell viability assay.; type: functional, cell-based
NALM-6 = experiment: cells; type: functional, cell-based; conditions: Homo sapiens
Description: SANGER: Inhibition of human NALM-6 cell growth in a cell viability assay.

NCI-H1618 = experiment: cells; type: functional, cell-based; conditions: Homo sapiens
Description: SANGER: Inhibition of human NCI-H1618 cell growth in a cell viability assay.

CESS = experiment: SANGER: Inhibition of human CESS cell growth in a cell viability assay.; type: functional, cell-based
TUR = experiment: cells; type: functional, cell-based; conditions: Homo sapiens
Description: SANGER: Inhibition of human TUR cell growth in a cell viability assay.

## COc1ccc(-c2ccc3c(N4CCOC[C@@H]4C)nc(N4CCOC[C@@H]4C)nc3n2)cc1CO [AZD-8055]
SNU-423
  IC50: 0.814 µM
CHP-134
  IC50: 1.38 µM
H9
  IC50: 0.0669 µM
NCI-H630
  IC50: > 2 µM
BALL-1
  IC50: > 2 µM
D-566MG
  IC50: 1.07 µM
HuO9
  IC50: 0.407 µM
SW900
  IC50: 1.75 µM
MOLT-13
  IC50: 0.665 µM
NCI-H1048
  IC50: 0.586 µM
LU-135
  IC50: > 2 µM

## O=c1cc(-c2cccc3c2Sc2ccccc2S3)oc(N2CCOCC2)c1 [KU-55933]
SNU-423
  IC50: > 10 µM
CHP-134
  IC50: > 10 µM
NCI-H630
  IC50: > 10 µM
BALL-1
  IC50: > 10 µM
HCT-15
  IC50: > 10 µM
D-566MG
  IC50: > 10 µM
HuO9
  IC50: > 10 µM
SW900
  IC50: > 10 µM
NCI-H1048
  IC50: > 10 µM
LU-135
  IC50: > 10 µM

## COc1ccc(C2=N[C@@H](c3ccc(Cl)cc3)[C@@H](c3ccc(Cl)cc3)N2C(=O)N2CCNC(=O)C2)c(OC(C)C)c1 [NUTLIN-3]
SNU-423
  IC50: > 8 µM
CHP-134
  IC50: 2.94 µM
H9
  IC50: > 8 µM
NCI-H630
  IC50: > 8 µM
BALL-1
  IC50: > 8 µM
D-566MG
  IC50: > 8 µM
HuO9
  IC50: > 8 µM
SW900
  IC50: > 8 µM
MOLT-13
  IC50: > 8 µM
NCI-H1048
  IC50: > 8 µM
LU-135
  IC50: > 8 µM

## C=CCNC1=C2C[C@@H](C)C[C@H](OC)[C@H](O)[C@@H](C)/C=C(\C)[C@H](OC(N)=O)[C@@H](OC)/C=C\C=C(/C)C(=O)NC(=CC1=O)C2=O [TANESPIMYCIN]
SNU-423
  IC50: > 1 µM
CHP-134
  IC50: > 1 µM
H9
  IC50: 0.0437 µM
NCI-H630
  IC50: > 1 µM
BALL-1
  IC50: > 1 µM
HCT-15
  IC50: > 1 µM
D-566MG
  IC50: 0.0039 µM
HuO9
  IC50: 0.0759 µM
SW900
  IC50: > 1 µM
MOLT-13
  IC50: > 1 µM
NCI-H1048
  IC50: 0.29 µM
LU-135
  IC50: > 1 µM

## CCC1=C[C@@H]2CN(C1)Cc1c([nH]c3ccccc13)[C@@](C(=O)OC)(c1cc3c(cc1OC)N(C)[C@H]1[C@@](O)(C(=O)OC)[C@H](OC(C)=O)[C@]4(CC)C=CCN5CC[C@]31[C@@H]54)C2 [VINORELBINE]
SNU-423
  IC50: 0.00554 µM
DV-90
  IC50: 0.0345 µM
NCI-H2227
  IC50: > 0.064 µM
MRK-nu-1
  IC50: 0.00447 µM
EW-7
  IC50: 0.0167 µM
HCC1143
  IC50: > 0.064 µM
NCI-H838
  IC50: 0.016 µM
COR-L279
  IC50: > 0.064 µM
NCI-H719
  IC50: > 0.064 µM
BC1 cell line
  IC50: 0.00939 µM
COLO 205
  IC50: 0.00137 µM
MES-SA
  IC50: 0.00311 µM
NCI-H630
  IC50: 0.0455 µM
Daudi
  IC50: > 0.064 µM
IPC-298
  IC50: 0.0366 µM
Calu-1
  IC50: > 0.064 µM
MC-CAR
  IC50: 0.00927 µM
HCT-15
  IC50: > 0.064 µM
TALL-1
  IC50: > 0.064 µM
LC-1F
  IC50: 0.0448 µM
SNU-C1
  IC50: > 0.064 µM
BL-70
  IC50: 0.00316 µM
C-4-II
  IC50: 0.023 µM
L-540
  IC50: 0.03 µM
JIYOYE
  IC50: 0.0107 µM
NCI-H2196
  IC50: > 0.064 µM
CPC-N
  IC50: > 0.064 µM
ECC12
  IC50: 0.000509 µM
EFE-184
  IC50: > 0.064 µM
HuO9
  IC50: 0.00709 µM
NCI-H524
  IC50: > 0.064 µM
U-698-M
  IC50: 0.0122 µM
P31-FUJ
  IC50: > 0.064 µM
NCI-H1734
  IC50: 0.0141 µM
NCI-H322M
  IC50: > 0.064 µM
CCF-STTG1
  IC50: 0.00837 µM
SNG-M
  IC50: 0.00388 µM
PLC-PRF-5
  IC50: > 0.064 µM
SR
  IC50: 0.00584 µM
HSC-4
  IC50: > 0.064 µM
SK-CO-1
  IC50: 0.0085 µM
OPM-2
  IC50: 0.00627 µM
Caov-3 cell line
  IC50: > 0.064 µM
MDA-MB-468
  IC50: 0.00714 µM
TT
  IC50: > 0.064 µM
NCCIT
  IC50: 0.00542 µM
SNU-475
  IC50: > 0.064 µM
MFE-296
  IC50: 0.00599 µM
NALM-6
  IC50: 0.00594 µM
NCI-H1618
  IC50: > 0.064 µM
CESS
  IC50: 0.00504 µM
TUR
  IC50: 0.0072 µM

From ChEMBL document CHEMBL1201861, “Genomics of Drug Sensitity in Cancer screening data, Wellcome Trust Sanger Institute”
